Assay results reported in US11384060B2, “Amide compounds and use thereof” (ALPHALA CO., LTD., priority 2017, dated 2022).
Where two headings read alike, the source gives them in different places.

Assays:
glucagon receptor (GCGR) = biological target: T1, glucagon receptor (GCGR) (Homo sapiens, UniProt P47871); test: I125-glucagon binding assay (competition, GCGR membrane fractions)
T1 construct: expressed in transfected cells; host or cells: CHO-K1 cells overexpressing GCGR (membrane fractions)
Procedure, shortened: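 Membranes from CHO-K1 cells overexpressing GCGR, 7.5 μg/well in 50 mM Tris pH 7.4 with 0.5% BSA, were preincubated 5 min with serially diluted compounds, then given 0.0625 nM final I^125-glucagon for 30 min at 25° C. Bound label was filtered on PEI-coated GF/B and counted; IC50 by non-linear regression.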

[1] = biological target: T2, glucagon receptor (GCGR) overexpressed CHO-K1 cells or human primary hepatocytes (Homo sapiens, UniProt P47871); test: Glucagon cAMP inhibition assay (Cisbio cAMP Dynamic 2 HTRF); format: cell-based
T2 construct: expressed in transfected cells; host or cells: GCGR overexpressed CHO-K1 cells or human primary hepatocytes (endogenous receptor)
T2 sequence (P47871 26-477): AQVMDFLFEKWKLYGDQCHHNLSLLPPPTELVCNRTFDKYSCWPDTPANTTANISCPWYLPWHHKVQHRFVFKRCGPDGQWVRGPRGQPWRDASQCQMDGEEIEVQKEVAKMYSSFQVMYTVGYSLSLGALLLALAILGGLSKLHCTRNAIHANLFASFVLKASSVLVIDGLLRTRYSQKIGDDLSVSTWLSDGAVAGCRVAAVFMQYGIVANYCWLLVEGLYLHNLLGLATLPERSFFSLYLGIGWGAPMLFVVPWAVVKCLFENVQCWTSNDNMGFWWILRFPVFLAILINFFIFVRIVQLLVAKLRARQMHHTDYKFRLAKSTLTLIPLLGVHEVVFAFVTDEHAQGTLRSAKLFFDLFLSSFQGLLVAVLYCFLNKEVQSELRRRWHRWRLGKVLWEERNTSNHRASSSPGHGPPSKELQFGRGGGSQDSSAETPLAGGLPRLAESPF
Procedure, shortened: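 GCGR-overexpressing CHO-K1 cells or human primary hepatocytes in HBSS with 0.1% BSA and 800 nM IBMX, pre-incubated 30 min with serially diluted compounds (1% DMSO final), then stimulated 30 min at room temperature with glucagon at its EC50. cAMP measured by HTRF after 60 min lysis; IC50 by non-linear regression.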

[2] = competition with I125-glucagon 0.0625 nM, membrane fractions of GCGR overexpressed CHO-K1 cells
[3] = inhibition of glucagon (EC50 concentration) induced cAMP production

T1 sequence (P47871 26-477): as above

Row | IC50 (glucagon receptor (GCGR); [2]) | IC50 cAMP [1, 3] | IC50 cAMP [1] | IC50 (glucagon receptor (GCGR)) | Compound | also measured
1 | 0.093 µM | 0.495 µM | – | – | CC(C)[C@@H](COc1cc(F)c(-c2cc3ccccc3o2)c(F)c1)Nc1ccc(C(=O)NCCC(=O)O)cc1 [Compound 7-1, (S)-3-(4-((1-(4-(benzofuran-2-yl)-3,5-difluorophenoxy)-3-methylbutan-2-yl)amino)benzamido)propanoic Acid] | –
2 | – | – | 6.8 µM | – | CCOC(=O)CCNC(=O)c1ccc(N[C@@H](CC(C)C)C(=O)Nc2ccc(-c3cc4ccccc4s3)cc2)cc1 [Compound 23-11, Ethyl (S)-3-(4-((1-((4-(benzo[b]thiophen-2-yl)phenyl)amino)-4-methyl-1-oxopentan-2-yl)amino)benzamido)propanoate] | IC50 (glucagon receptor (GCGR); uM): > 10 µM
3 | – | – | >30 µM | > 30 µM | CC[C@H](C)[C@@H](COc1nnc(-c2cc3ccccc3o2)o1)Nc1ccc(C(=O)NCCC(=O)O)cc1 [Compound 22-7, 3-(4-(((2S,3 S)-1-((5-(benzofuran-2-yl)-1,3,4-oxadiazol-2-yl)oxy)-3-methylpentan-2-yl)amino)benzamido)propanoic Acid] | –
4 | 0.017 µM | 0.3136 µM | – | – | CC(C)[C@@H](COc1ccc(-c2ccc(C(F)(F)F)cc2Cl)c(Cl)c1)Nc1ccc(C(=O)NCCC(=O)O)cc1 [Compound 3-4, (S)-3-(4-((1-((2,2′-dichloro-4′-(trifluoromethyl)-[1,1′-biphenyl]-4-yl)oxy)-3-methylbutan-2-yl)amino)benzamido)propanoic Acid] | –
5 | 0.141 µM | 0.272 µM | – | – | CC[C@H](C)[C@@H](COc1ccc(-c2ccc(C(F)(F)F)cc2Cl)nc1)Nc1ccc(C(=O)NCCC(=O)O)cc1 [Compound 10-16, 3-(4-(((2S,3S)-1-((6-(2-chloro-4-(trifluoromethyl)phenyl)pyridin-3-yl)oxy)-3-methylpentan-2-yl)amino)benzamido)propanoic Acid] | –
6 | 0.234 µM | 0.88 µM | – | – | CC(C)C[C@@H](COc1ccc(-c2ccc(C(F)(F)F)cc2Cl)nc1)Nc1ccc(C(=O)NCCC(=O)O)cc1 [Compound 10-18, (S)-3-(4-((1-((6-(2-chloro-4-(trifluoromethyl)phenyl)pyridin-3-yl)oxy)-4-methylpentan-2-yl)amino)benzamido)propanoic Acid] | –
7 | – | – | >30 µM | 0.062 µM | CC[C@H](C)[C@@H](COc1nnc(-c2ccc(C(F)(F)F)cc2F)o1)Nc1ccc(C(=O)NCCC(=O)O)cc1 [Compound 22-1, 3-(4-(((2S,3S)-1-((5-(2-fluoro-4-(trifluoromethyl)phenyl)-1,3,4-oxadiazol-2-yl)oxy)-3-methylpentan-2-yl)amino)benzamido)propanoic Acid] | –
8 | – | – | 0.0815 µM | 0.33 µM | CC(C)[C@@H](COc1ccc(-c2ccc(C(F)(F)F)cc2Cl)cn1)Nc1ccc(C(=O)NCCC(=O)O)cc1 [Compound 15-9, (S)-3-(4-((1-((5-(2-chloro-4-(trifluoromethyl)phenyl)pyridin-2-yl)oxy)-3-methylbutan-2-yl)amino)benzamido)propanoic Acid] | –
9 | 0.926 µM | 14.398 µM | – | – | CC(C)[C@@H](COc1ccc(-c2cc3ccccc3o2)nc1)Nc1ccc(C(=O)NCCC(=O)O)cn1 [Compound 11-2, (S)-3-(6-((1-((6-(benzofuran-2)pyridin-3-yl)oxy)-3-methylbutan-2-yl)amino)nicotinamido)propanoic Acid] | –
10 | 0.113 µM | 0.2387 µM | – | – | CC(C)[C@H](COc1ccc(-c2cc3ccccc3o2)cc1)Nc1ccc(C(=O)NCCC(=O)O)cc1 [Compound 1-34, (R)-3-(4-((1-(4-(benzofuran-2-yl)phenoxy)-3-methylbutan-2-yl)amino)benzamido) propanoic Acid] | –
11 | 0.172 µM | 0.428 µM | – | – | CC(C)C[C@@H](COc1ccc(-c2ccc(C(F)(F)F)cc2F)c(F)c1)Nc1ccc(C(=O)NCCC(=O)O)cc1 [Compound 8-6, (S)-3-(4-((1-((2,2′-difluoro-4′-(trifluoromethyl)-[1,1′-biphenyl]-4-yl)oxy)-4-methylpentan-2-yl)amino)benzamido)propanoic Acid] | –
12 | – | – | – | 6.02 µM | O=C(O)CCNC(=O)c1ccc(NC(Cc2ccccc2)C(=O)Nc2ccc(C(F)(F)F)cc2)cc1 (stereo in doubt) [Compound 24-4, (S)-3-(4-((1-oxo-3-phenyl-1-((4-(trifluoromethyl)phenyl)amino)propan-2-yl)amino)benzamido)propanoic Acid] | IC50 cAMP ([1]; uM): >10 µM
13 | – | – | 0.294 µM | 0.376 µM | CC[C@H](C)[C@@H](COc1ccc(-c2ccc(C(F)(F)F)cc2)cn1)Nc1ccc(C(=O)NCCC(=O)O)cc1 [Compound 15-12, 3-(4-(((2S,3S)-3-methyl-1-((5-(4-(trifluoromethyl)phenyl)pyridin-2-yl)oxy)pentan-2-yl)amino)benzamido)propanoic Acid] | –
14 | – | – | 4.145 µM | 0.294 µM | CC[C@H](C)[C@H](Nc1ccc(C(=O)NCCC(=O)O)cc1)C(=O)Nc1ccc(-c2cc3ccccc3o2)cc1 [Compound 23-31, 3-(4-(((2S,3S)-1-((4-(benzofuran-2-yl)phenyl)amino)-3-methyl-1-oxopentan-2-yl)amino)benzamido)propanoic Acid] | –
15 | 0.26 µM | 3.6 µM | – | – | CC[C@H](C)[C@@H](COc1ccc(-c2cc3ccccc3o2)cc1)Nc1ccc(C(=O)NC[C@@H](O)C(=O)O)cc1 [Compound 1-9, (R)-3-(4-(((2S,3S)-1-(4-(benzofuran-2-yl)phenoxy)-3-methylpentan-2-yl)amino)benzamido)-2-hydroxypropanoic Acid] | –
16 | 0.046 µM | 0.157 µM | – | – | CC[C@H](C)[C@@H](COc1ccc(-c2cc3ccccc3o2)c(OC)c1)Nc1ccc(C(=O)NCCC(=O)O)cc1 [Compound 13-1, 3-(4-(((2S,3S)-1-(4-(benzofuran-2-yl)-3-methoxyphenoxy)-3-methylpentan-2-yl)amino)benzamido)propanoic Acid] | –
17 | – | – | 2 µM | – | O=C(O)CCNC(=O)c1ccc(N[C@@H](Cc2ccccc2)C(=O)Nc2ccc(-c3cc4ccccc4o3)cc2)cc1 [Compound 23-8, (S)-3-(4-((1-((4-(benzofuran-2-yl)phenyl)amino)-1-oxo-3-phenylpropan-2-yl)amino)benzamido)propanoic Acid] | IC50 (glucagon receptor (GCGR); uM): > 10 µM
18 | 1.13 µM | 5.436 µM | – | – | CC(C)[C@@H](Cc1noc(-c2ccc(C(C)(C)C)cc2)n1)Nc1ccc(C(=O)NCCC(=O)O)cc1 [Compound 21-3, (R)-3-(4-((1-(5-(4-(tert-butyl)phenyl)-1,2,4-oxadiazol-3-yl)-3-methylbutan-2-yl)amino)benzamido)propanoic Acid] | –
19 | 0.337 µM | 0.89 µM | – | – | CCC(C)[C@@H](COc1cnc(-c2ccc(Cl)cc2Cl)nc1)Nc1ccc(C(=O)NCCC(=O)O)cc1 (stereo partly drawn) [Compound 12-10, 3-(4-(((2S)-1-((2-(2,4-dichlorophenyl)pyrimidin-5-yl)oxy)-3-methylpentan-2-yl)amino)benzamido)propanoic Acid] | –
20 | – | – | 0.9168 µM | 0.688 µM | CC(C)COC[C@@H](Cc1ccc(-c2ccc(C(F)(F)F)cc2)cc1)Nc1ccc(C(=O)NCCC(=O)O)cc1 [Compound 19-18] | –
21 | 3.65 µM | 5.577 µM | – | – | CC(C)C[C@@H](COc1cnn(-c2ccc(F)cc2F)c1)Nc1ccc(C(=O)NCCC(=O)O)cc1 [Compound 9-6, (S)-3-(4-((1-((1-(2,4-difluorophenyl)-1H-pyrazol-4-yl)oxy)-4-methylpentan-2-yl)amino)benzamido)propanoic Acid] | –
22 | – | – | 0.204 µM | 0.179 µM | CC[C@H](C)[C@@H](COc1ccc(-c2ccc(C(F)(F)F)cc2F)c(C)n1)Nc1ccc(C(=O)NCCC(=O)O)cc1 [Compound 18-6, 3-(4-(((2S,3S)-1-((5-(2-fluoro-4-(trifluoromethyl)phenyl)-6-methylpyridin-2-yl)oxy)-3-methylpentan-2-yl)amino)benzamido)propanoic Acid] | –
23 | – | – | >30 µM | 0.584 µM | COc1cnc(-c2ccc([C@@H](COc3ccc(-c4cc5ccccc5o4)cn3)Nc3ccc(C(=O)NCCS(=O)(=O)O)cc3)cc2)nc1 [Compound 15-35, (S)-2-(4-((2-((5-(benzofuran-2-yl)pyridin-2-yl)oxy)-1-(4-(5-methoxypyrimidin-2-yl)phenyl)ethyl)amino)benzamido)ethane-1-sulfonic Acid] | –
24 | 0.172 µM | 0.203 µM | – | – | CC[C@H](C)[C@@H](COc1ccc(-c2ccc(OC)cc2Cl)cc1)Nc1ccc(C(=O)NCCC(=O)O)cc1 [Compound 1-38, 3-(4-(((2S,3S)-1-((2′-chloro-4′-methoxy-[1,1′-biphenyl]-4-yl)oxy)-3-methylpentan-2-yl)amino)benzamido)propanoic Acid] | –
25 | – | – | 1.54 µM | 0.0465 µM | O=C(O)CCNC(=O)c1ccc(N[C@H](Cc2ccc(-c3ccc(C(F)(F)F)cc3)cc2)C(=O)Nc2ccc(OC(F)(F)F)cc2)cc1 [Compound 24-28, (R)-3-(4-((1-oxo-1-((4-(trifluoromethoxy)phenyl)amino)-3-(4′-(trifluoromethyl)-[1,1′-biphenyl]-4-yl)propan-2-yl)amino)benzamido)propanoic Acid] | –

Row | Compound | IC50 (glucagon receptor (GCGR); [2]) | IC50 cAMP [1, 3] | IC50 cAMP [1] | IC50 (glucagon receptor (GCGR)) | also measured
26 | CC(C)COC[C@H](Cc1ccc(-c2ccc(C(F)(F)F)cc2)cc1)Nc1ccc(C(=O)NCCC(=O)O)cc1 [Compound 19-34, (S)-3-(4-((1-isobutoxy-3-(4′-(trifluoromethyl)-[1,1′-biphenyl]-4-yl)propan-2-yl)amino)benzamido)propanoic Acid] | – | – | 0.487 µM | 0.38 µM | –
